Experiments:
Assay type in all cases: in vivo
[1] = tested on: Echinochloa oryzacola Vasing.; experiment: Test Example 1: herbicidal activity, application before weed generation in submerged conditions (symbol A); conditions: application herbicide amount 320 g/ha
How it was run: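 Scores run 0 to 5 by herbicidal ratio, with 5 meaning 90% or more and 0 meaning 5% or lower, read 3 weeks after treatment. Compound was applied as a diluted emulsion to the water surface of submerged alluvial-soil pots on the day weed seeds were sown.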

transplanted rice plant = experiment: Test Example 1: effect on crop, application before weed generation in submerged conditions (symbol a); conditions: application herbicide amount 320 g/ha
How it was run: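 Alluvial soil pots flooded to 4 cm water, sown with Echinochloa oryzacola, Scirpus juncoides and Monochoria vaginalis, then transplanted with 2.5 leaf stage rice seedlings; pre-emergence application. Greenhouse 25° C. to 30° C.; scored 0–5 by herbicidal ratio 3 weeks after application.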

Scirpus juncoides = experiment: Test Example 2: herbicidal activity, application during weed generation in submerged conditions (symbol B); conditions: Table 23; application herbicide amount 320 g/ha; grade 0-5 by criteria of Test Example 1
How it was run: (§1)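 Paddy pot test, submerged (4 cm water), alluvial soil, mixed sowing; greenhouse 25–30° C. Emulsion formulation diluted to predetermined rate, applied onto floodwater at 1–2 leaf stage. Visual herbicidal rating at 3 wk post-treatment.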

Monochoria vaginalis = experiment: Test Example 2: herbicidal activity, application during weed generation in submerged conditions (symbol C); conditions: Table 23; application herbicide amount 320 g/ha; grade 0-5 by criteria of Test Example 1
How it was run: as §1

Cyperus difformis = experiment: Test Example 3: herbicidal effect by foliage application, Wagner pot (symbol E); conditions: application herbicide amount 320 g/ha
How it was run: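 Foliar spray of water-diluted emulsion formulation at a predetermined herbicide amount onto 14-day-old plants in flooded alluvial soil (water depth 0.1–0.5 cm), greenhouse 25–30 °C; rice sown alongside. Scored 3 wk post-application on set criteria.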

[2] = tested on: directly sowed rice plant; experiment: Test Example 3: effect on crop by foliage application, Wagner pot (symbol b); conditions: application herbicide amount 320 g/ha
How it was run: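 Plants are raised from seed in flooded paddy conditions: water stands 0.1–0.5 cm over alluvial soil, and the pot is kept in a greenhouse at 25–30 °C. Species sown are barnyardgrass (E. crus-galli var. crus-galli), Leptochloa chinensis, Cyperus difformis and rice.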

soybean = experiment: Test Example 4: effect on crop by soil treatment (symbol d); conditions: application herbicide amount 320 g/ha
How it was run: (§2)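 Greenhouse culture at 25° C. to 30° C. followed sowing of seed in spots on sterilized diluvial soil with a soil cover close to 1.5 cm thick.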

rice = experiment: Test Example 4: effect on crop by soil treatment (symbol b); conditions: application herbicide amount 320 g/ha
How it was run: as §2

wheat = experiment: Test Example 4: effect on crop by soil treatment (symbol e); conditions: application herbicide amount 320 g/ha
How it was run: as §2

Avena fatua = experiment: Test Example 5: herbicidal effect by foliage application, plastic box (symbol I); conditions: 320 g/ha, 3 weeks after application
How it was run: (§3)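 Effect is rated 3 weeks after a foliar spray of water-diluted emulsion concentrate at a predetermined herbicide amount. Plants had grown 14 days in a 25° C. to 30° C. greenhouse from seed in sterilized diluvial soil.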

Lolium multiflorum Lam. = experiment: Test Example 5: herbicidal effect by foliage application, plastic box (symbol K); conditions: 320 g/ha, 3 weeks after application
How it was run: as §3

Chenopodium album = experiment: Test Example 5: herbicidal effect by foliage application, plastic box (symbol O); conditions: 320 g/ha, 3 weeks after application
How it was run: as §3

corn = experiment: Test Example 5: effect on crop by foliage application, plastic box (symbol c); conditions: 320 g/ha, 3 weeks after application
How it was run: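 Sterilized diluvial soil, plastic box (21 × 13 × 7 cm); spot sowing, ~1.5 cm soil cover; greenhouse 25–30° C.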

Row | SMILES | Herbicidal effect grade, A: Echinochloa oryzacola Vasing. [1] | Effect grade on crop, a: transplanted rice plant (transplanted rice plant) | Herbicidal effect grade, B: Scirpus juncoides (Scirpus juncoides) | Herbicidal effect grade, C: Monochoria vaginalis (Monochoria vaginalis) | herbicidal effect on E, grade 0-5 (Cyperus difformis) | effect on crop b (directly sowed rice plant), grade 0-5 [2] | d (soybean) effect on crop grade (soybean) | b (directly sowed rice plant) effect on crop grade (rice) | e (wheat) effect on crop grade (wheat) | I: Avena fatua, herbicidal effect grade (Avena fatua) | K: Lolium multiflorum Lam., herbicidal effect grade (Lolium multiflorum Lam.) | O: Chenopodium album, herbicidal effect grade (Chenopodium album) | c: corn, effect on crop grade (corn)
1 | CC(CC1CC(O)=C(c2c(C)cc(C)cc2C)C1=O)=NO (centres unmarked) [1-058] | 5 (Herbicidal ratio of 90% or more (almost completely withered)) | 5 (Herbicidal ratio of 90% or more (almost completely withered)) | 0 (Herbicidal ratio of 5% or lower (almost no effect)) | 0 (Herbicidal ratio of 5% or lower (almost no effect)) | 5 (Herbicidal ratio of 90% or more (almost completely withered)) | 5 (Herbicidal ratio of 90% or more (almost completely withered)) | 0 (Herbicidal ratio of 5% or lower (almost no effect)) | 5 (Herbicidal ratio of 90% or more (almost completely withered)) | 0 (Herbicidal ratio of 5% or lower (almost no effect)) | 5 (Herbicidal ratio of 90% or more (almost completely withered)) | 5 (Herbicidal ratio of 90% or more (almost completely withered)) | 0 (Herbicidal ratio of 5% or lower (almost no effect)) | 4 (Herbicidal ratio of 70% or higher and lower than 90%)
2 | CON=C(CC1CC(O)=C(c2c(C)cc(C)cc2C)C1=O)C(C)(C)C (centres unmarked) [1-059] | 5 (Herbicidal ratio of 90% or more (almost completely withered)) | 4 (Herbicidal ratio of 70% or higher and lower than 90%) | 0 (Herbicidal ratio of 5% or lower (almost no effect)) | 0 (Herbicidal ratio of 5% or lower (almost no effect)) | 3 (Herbicidal ratio of 40% or higher and lower than 70%) | 5 (Herbicidal ratio of 90% or more (almost completely withered)) | 0 (Herbicidal ratio of 5% or lower (almost no effect)) | 4 (Herbicidal ratio of 70% or higher and lower than 90%) | 0 (Herbicidal ratio of 5% or lower (almost no effect)) | 4 (Herbicidal ratio of 70% or higher and lower than 90%) | 3 (Herbicidal ratio of 40% or higher and lower than 70%) | 0 (Herbicidal ratio of 5% or lower (almost no effect)) | 4 (Herbicidal ratio of 70% or higher and lower than 90%)
3 | CON=C(C)CC1CC(OC(=O)C(C)Oc2ccccc2)=C(c2c(C)cc(C)cc2C)C1=O (centres unmarked) [1-060] | 5 (Herbicidal ratio of 90% or more (almost completely withered)) | 5 (Herbicidal ratio of 90% or more (almost completely withered)) | 4 (Herbicidal ratio of 70% or higher and lower than 90%) | 0 (Herbicidal ratio of 5% or lower (almost no effect)) | 5 (Herbicidal ratio of 90% or more (almost completely withered)) | 5 (Herbicidal ratio of 90% or more (almost completely withered)) | 0 (Herbicidal ratio of 5% or lower (almost no effect)) | 5 (Herbicidal ratio of 90% or more (almost completely withered)) | 2 (Herbicidal ratio of 20% or higher and lower than 40%) | 5 (Herbicidal ratio of 90% or more (almost completely withered)) | 5 (Herbicidal ratio of 90% or more (almost completely withered)) | 3 (Herbicidal ratio of 40% or higher and lower than 70%) | 4 (Herbicidal ratio of 70% or higher and lower than 90%)
4 | CCCC(CC1CC(O)=C(c2c(C)cc(C)cc2C)C1=O)=NOC (centres unmarked) [1-062] | 5 (Herbicidal ratio of 90% or more (almost completely withered)) | 5 (Herbicidal ratio of 90% or more (almost completely withered)) | 0 (Herbicidal ratio of 5% or lower (almost no effect)) | 0 (Herbicidal ratio of 5% or lower (almost no effect)) | 4 (Herbicidal ratio of 70% or higher and lower than 90%) | 5 (Herbicidal ratio of 90% or more (almost completely withered)) | 0 (Herbicidal ratio of 5% or lower (almost no effect)) | 5 (Herbicidal ratio of 90% or more (almost completely withered)) | 0 (Herbicidal ratio of 5% or lower (almost no effect)) | 4 (Herbicidal ratio of 70% or higher and lower than 90%) | 5 (Herbicidal ratio of 90% or more (almost completely withered)) | 0 (Herbicidal ratio of 5% or lower (almost no effect)) | 4 (Herbicidal ratio of 70% or higher and lower than 90%)
5 | CON=C(CC1CC(OC(=O)COc2ccccc2)=C(c2c(C)cc(C)cc2C)C1=O)C1CC1 (centres unmarked) [1-063] | 5 (Herbicidal ratio of 90% or more (almost completely withered)) | 5 (Herbicidal ratio of 90% or more (almost completely withered)) | 2 (Herbicidal ratio of 20% or higher and lower than 40%) | 0 (Herbicidal ratio of 5% or lower (almost no effect)) | 5 (Herbicidal ratio of 90% or more (almost completely withered)) | 5 (Herbicidal ratio of 90% or more (almost completely withered)) | 0 (Herbicidal ratio of 5% or lower (almost no effect)) | 5 (Herbicidal ratio of 90% or more (almost completely withered)) | 3 (Herbicidal ratio of 40% or higher and lower than 70%) | 5 (Herbicidal ratio of 90% or more (almost completely withered)) | 5 (Herbicidal ratio of 90% or more (almost completely withered)) | 0 (Herbicidal ratio of 5% or lower (almost no effect)) | 3 (Herbicidal ratio of 40% or higher and lower than 70%)

— US11000033B2, “Ketone or oxime compound, and herbicide” (NISSAN CHEMICAL CORPORATION, priority 2014, dated 2021)
